Converted amounts (≈) assume the structure as drawn.
How the values were obtained:
Assay in all cases: MIC by microtitration dilution method
Assay type in all cases: cell-based
[1] = test system: Klebsiella pneumoniae MGH-2; conditions: MGH2, read-out: Minimal Inhibitory Concentration MIC
Text: (§1) Agents & Chemoth., 6, 124 (1974), which is incorporated herein by reference.

[2] = test system: Pseudomonas aeruginosa UI-18; conditions: UI18, read-out: Minimal Inhibitory Concentration MIC
Text: as §1

[3] = test system: Proteus rettgeri M 1771; conditions: Providencia rettgeri, M1771; Proteus rettgeri M 1771, in vitro; read-out: Minimal Inhibitory Concentration MIC
Text: as §1

[4] = test system: Escherichia coli Vogel; conditions: in vitro, read-out: Minimal Inhibitory Concentration MIC
Text: as §1

[5] = test system: Enterobacter cloacae MA 2646; conditions: MA2646, read-out: Minimal Inhibitory Concentration MIC
Text: as §1

[6] = test system: Streptococcus pyogenes C-203; conditions: C203; Streptococcus pyogenes C-203, in vitro; read-out: Minimal Inhibitory Concentration MIC
Text: (§2) The compounds of the invention display antibacterial activity when tested by the microtitration dilution method as described in Heifetz, et al, Antimicr. Agents & Chemoth., 6, 124 (1974), which is incorporated herein by reference.
(§3) By use of the above referenced method, the following minimum inhibitory concentration values (MICs in μg/ml) were obtained for representative compounds of the invention.

[7] = test system: Streptococcus pneumoniae SV-1; conditions: SV1; Streptococcus pneumoniae SV-1, in vitro; read-out: Minimal Inhibitory Concentration MIC
Text: as §2, §3

[8] = test system: Staphylococcus aureus UC-76; conditions: UC76; Staphylococcus aureus UC-76, in vitro; read-out: Minimal Inhibitory Concentration MIC
Text: as §2, §3

[9] = test system: Staphylococcus aureus H 228; conditions: H228; Staphylococcus aureus H 228, in vitro; read-out: Minimal Inhibitory Concentration MIC
Text: as §2, §3

[10] = test system: Streptococcus faecalis MGH-2; conditions: Enterococcus faecalis, MGH2; Streptococcus faecalis MGH-2, in vitro; read-out: Minimal Inhibitory Concentration MIC
Text: as §2, §3

Structure (SMILES): NCC1(c2ccccc2)CCN(c2c(F)cc3c(=O)c(C(=O)O)cn(C4CC4)c3c2F)C1 (stereo not shown) [Example 5, 7-[[3-(Aminomethyl)-3-phenyl]-1-pyrrolidinyl]-1-cyclopropyl-6,8-difluro-1,4-dihydro-4-oxo-3-quinolinecarboxylic acid]
- MIC [1]: 0.1 µg/mL (≈ 0.228 µM)
- MIC [2]: 0.4 µg/mL (≈ 0.91 µM)
- MIC [3]: 0.2 µg/mL (≈ 0.455 µM)
- MIC [4]: 0.05 µg/mL (≈ 0.114 µM)
- MIC [5]: 0.05 µg/mL (≈ 0.114 µM)
- MIC [6]: 0.05 µg/mL (≈ 0.114 µM)
- MIC [7]: 0.013 µg/mL (≈ 0.0296 µM)
- MIC [8]: 0.013 µg/mL (≈ 0.0296 µM)
- MIC [9]: 0.025 µg/mL (≈ 0.0569 µM)
- MIC [10]: 0.05 µg/mL (≈ 0.114 µM)

Source: patent publication US4840956A, “Novel disubstituted-7-pyrrolidinoquinoline antibacterial agents” (Warner-Lambert Company, priority 1988, dated 1989)
